Source: patent publication US8247211B2, “Glycopeptide antibiotics” (American Cyanamid Company, priority 2001, dated 2012)
In brackets after ≈: the same amount, converted by molar mass.

Legend:
Assay in all cases: In vitro antibacterial evaluation: minimum inhibitory concentration (MIC), broth dilution method
Assay type in all cases: cell-based
Escherichia coli [1] = test system: Escherichia coli
Escherichia coli [2] = test system: Escherichia coli; remark: listed apart in the source
Method in brief: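 Following NCCLS approved standard M7-A2, compounds are serially diluted from 64 to 0.06 μg/mL in Muller-Hinton II […] and inoculated at 5×10^5 CFU/mL; the MIC is the minimum concentration at which growth is inhibited.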

Enterococcus sp. = conditions: for MIC Enterococcus faecalis (GC 2242) / MIC Enterococcus faecalis (GC 4552): 18 hours at 35° C.
Method in brief: (§1)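 NCCLS M7-A2 broth dilution with Mueller-Hinton II, testing 64-0.06 μg/mL antibiotic against 5×10^5 CFU/mL inocula. Test strains include recent methicillin-, penicillin- or vancomycin-resistant clinical isolates. MIC is the lowest concentration preventing growth.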

Streptococcus sp. = conditions: 18 hours at 35° C.
Method in brief: as §1

Staphylococcus sp. = conditions: 18 hours at 35° C.
Method in brief: as §1

Row | MIC Escherichia coli (ATCC 25922) (Escherichia coli [1]) [µg/mL] | MIC Escherichia coli (GC 4559) (Escherichia coli [2]) [µg/mL] | MIC Escherichia coli (GC 4560) (Escherichia coli [2]) [µg/mL] | MIC Enterococcus avium (GC 4558) (Enterococcus sp.) [µg/mL] | MIC Enterococcus faecalis (ATCC 29212) (Enterococcus sp.) [µg/mL] | MIC Enterococcus faecalis (GC 2242) (Enterococcus sp.) [µg/mL] | MIC Enterococcus faecalis (GC 4552) (Enterococcus sp.) [µg/mL] | MIC Enterococcus faecalis (GC 4553) (Enterococcus sp.) [µg/mL] | MIC Enterococcus faecalis (GC 4554) (Enterococcus sp.) [µg/mL] | MIC Enterococcus faecium (GC 2243) (Enterococcus sp.) [µg/mL] | MIC Enterococcus faecium (GC 4556) (Enterococcus sp.) [µg/mL] | MIC Enterococcus faecium (GC 4557) (Enterococcus sp.) [µg/mL] | MIC Streptococcus agalactiae (GC 4564) (Streptococcus sp.) [µg/mL] | MIC Streptococcus pyogenes (ID-3187) (Streptococcus sp.) [µg/mL] | MIC Coagulase Negative Staphylococcus (GC 4547) (Staphylococcus sp.) [µg/mL] | MIC Coagulase Negative Staphylococcus (GC 4547) (Staphylococcus sp.; broth dilution) [µg/mL] | MIC Coagulase Negative Staphylococcus (GC 4548) (Staphylococcus sp.) [µg/mL] | MIC Coagulase Negative Staphylococcus (GC 4548) (Staphylococcus sp.; broth dilution) [µg/mL] | MIC Coagulase Negative Staphylococcus (GC 4549) (Staphylococcus sp.) [µg/mL] | MIC Coagulase Negative Staphylococcus (GC 4549) (Staphylococcus sp.; broth dilution) [µg/mL] | SMILES | further results
1 | >64 | >64 | 1 (≈ 0.707 µM) | 16 (≈ 11.3 µM) | 32 (≈ 22.6 µM) | 16 (≈ 11.3 µM) | 32 (≈ 22.6 µM) | 32 (≈ 22.6 µM) | 32 (≈ 22.6 µM) | 16 (≈ 11.3 µM) | 16 (≈ 11.3 µM) | 2 (≈ 1.41 µM) | 1 (≈ 0.707 µM) | 1 (≈ 0.707 µM) | 2 (≈ 1.41 µM) | 2 (≈ 1.41 µM) | 1 (≈ 0.707 µM) | 1 (≈ 0.707 µM) | 1 (≈ 0.707 µM) | 1 (≈ 0.707 µM) | CC(C)CC(=O)OC1C(O)C(CO)OC(OC2C(CO)OC(Oc3ccc(CC4NC(=O)C(C(C)c5ccc(Cl)cc5)NC(=O)CNC(=O)C(CO)NC(=O)C(C(O)C5CNC(=N)N5C5OC(CO)C(O)C(O)C5O)NC(=O)C(C(O)C5CNC(=N)N5)NC4=O)cc3)C(O)C2O)C1O (stereo not drawn) [Example 262b] | MIC Coagulase Negative Staphylococcus (GC 4551) (Staphylococcus sp.): 2 µg/mL (≈ 1.41 µM); MIC Coagulase Negative Staphylococcus (GC 4551) (Staphylococcus sp.; broth dilution): 2 µg/mL (≈ 1.41 µM); MIC Staphylococcus aureus (ATCC 29213) (Staphylococcus sp.): 4 µg/mL (≈ 2.83 µM); MIC Staphylococcus aureus (ATCC 29213) (Staphylococcus sp.; broth dilution): 4 µg/mL (≈ 2.83 µM); MIC Staphylococcus aureus (GC 1131) (Staphylococcus sp.): 4 µg/mL (≈ 2.83 µM); MIC Staphylococcus aureus (GC 1131) (Staphylococcus sp.; broth dilution): 4 µg/mL (≈ 2.83 µM); MIC Staphylococcus aureus (GC 4541) (Staphylococcus sp.): 2 µg/mL (≈ 1.41 µM); MIC Staphylococcus aureus (GC 4541) (Staphylococcus sp.; broth dilution): 2 µg/mL (≈ 1.41 µM); MIC Staphylococcus aureus (GC 4542) (Staphylococcus sp.): 2 µg/mL (≈ 1.41 µM); MIC Staphylococcus aureus (GC 4542) (Staphylococcus sp.; broth dilution): 2 µg/mL (≈ 1.41 µM); MIC Staphylococcus aureus (GC 4544) (Staphylococcus sp.): 4 µg/mL (≈ 2.83 µM); MIC Staphylococcus aureus (GC 4544) (Staphylococcus sp.; broth dilution): 4 µg/mL (≈ 2.83 µM); MIC Staphylococcus aureus (GC 4545) (Staphylococcus sp.): 2 µg/mL (≈ 1.41 µM); MIC Staphylococcus aureus (GC 4545) (Staphylococcus sp.; broth dilution): 2 µg/mL (≈ 1.41 µM); MIC Staphylococcus aureus-SMITH (GC 4543) (Staphylococcus sp.): 1 µg/mL (≈ 0.707 µM); MIC Staphylococcus aureus-SMITH (GC 4543) (Staphylococcus sp.; broth dilution): 1 µg/mL (≈ 0.707 µM); MIC Staphylococcus haemolyticus (GC 4546) (Staphylococcus sp.): 2 µg/mL (≈ 1.41 µM); MIC Staphylococcus haemolyticus (GC 4546) (Staphylococcus sp.; broth dilution): 2 µg/mL (≈ 1.41 µM)
2 | 64 (≈ 45.8 µM) | >64 | 4 (≈ 2.86 µM) | >64 | 64 (≈ 45.8 µM) | 64 (≈ 45.8 µM) | >64 | >64 | >64 | >64 | 64 (≈ 45.8 µM) | 32 (≈ 22.9 µM) | 8 (≈ 5.72 µM) | 4 (≈ 2.86 µM) | 8 (≈ 5.72 µM) | 8 (≈ 5.72 µM) | 4 (≈ 2.86 µM) | 4 (≈ 2.86 µM) | 4 (≈ 2.86 µM) | 4 (≈ 2.86 µM) | CC(C)CC(=O)OC1C(OC2C(CO)OC(Oc3ccc(CC4NC(=O)C(C(C)c5cccc(F)c5)NC(=O)CNC(=O)C(CO)NC(=O)C(C(O)C5CNC(=N)N5C5OC(CO)C(O)C(O)C5O)NC(=O)C(C(O)C5CNC(=N)N5)NC4=O)cc3)C(O)C2O)OC(CO)C(O)C1O (stereo not drawn) [Example 264a] | MIC Coagulase Negative Staphylococcus (GC 4551) (Staphylococcus sp.): 16 µg/mL (≈ 11.4 µM); MIC Coagulase Negative Staphylococcus (GC 4551) (Staphylococcus sp.; broth dilution): 16 µg/mL (≈ 11.4 µM); MIC Staphylococcus aureus (ATCC 29213) (Staphylococcus sp.): 16 µg/mL (≈ 11.4 µM); MIC Staphylococcus aureus (ATCC 29213) (Staphylococcus sp.; broth dilution): 16 µg/mL (≈ 11.4 µM); MIC Staphylococcus aureus (GC 1131) (Staphylococcus sp.): 16 µg/mL (≈ 11.4 µM); MIC Staphylococcus aureus (GC 1131) (Staphylococcus sp.; broth dilution): 16 µg/mL (≈ 11.4 µM); MIC Staphylococcus aureus (GC 4541) (Staphylococcus sp.): 16 µg/mL (≈ 11.4 µM); MIC Staphylococcus aureus (GC 4541) (Staphylococcus sp.; broth dilution): 16 µg/mL (≈ 11.4 µM); MIC Staphylococcus aureus (GC 4542) (Staphylococcus sp.): 16 µg/mL (≈ 11.4 µM); MIC Staphylococcus aureus (GC 4542) (Staphylococcus sp.; broth dilution): 16 µg/mL (≈ 11.4 µM); MIC Staphylococcus aureus (GC 4544) (Staphylococcus sp.): 8 µg/mL (≈ 5.72 µM); MIC Staphylococcus aureus (GC 4544) (Staphylococcus sp.; broth dilution): 8 µg/mL (≈ 5.72 µM); MIC Staphylococcus aureus (GC 4545) (Staphylococcus sp.): 8 µg/mL (≈ 5.72 µM); MIC Staphylococcus aureus (GC 4545) (Staphylococcus sp.; broth dilution): 8 µg/mL (≈ 5.72 µM); MIC Staphylococcus aureus-SMITH (GC 4543) (Staphylococcus sp.): 8 µg/mL (≈ 5.72 µM); MIC Staphylococcus aureus-SMITH (GC 4543) (Staphylococcus sp.; broth dilution): 8 µg/mL (≈ 5.72 µM); MIC Staphylococcus haemolyticus (GC 4546) (Staphylococcus sp.): 8 µg/mL (≈ 5.72 µM); MIC Staphylococcus haemolyticus (GC 4546) (Staphylococcus sp.; broth dilution): 8 µg/mL (≈ 5.72 µM)
3 | 64 (≈ 45.8 µM) | >64 | 4 (≈ 2.86 µM) | 64 (≈ 45.8 µM) | 64 (≈ 45.8 µM) | 32 (≈ 22.9 µM) | 64 (≈ 45.8 µM) | 64 (≈ 45.8 µM) | 64 (≈ 45.8 µM) | 64 (≈ 45.8 µM) | 64 (≈ 45.8 µM) | 8 (≈ 5.72 µM) | 4 (≈ 2.86 µM) | 4 (≈ 2.86 µM) | 4 (≈ 2.86 µM) | 4 (≈ 2.86 µM) | 4 (≈ 2.86 µM) | 4 (≈ 2.86 µM) | 4 (≈ 2.86 µM) | 4 (≈ 2.86 µM) | CC(C)CC(=O)OC1C(O)C(CO)OC(OC2C(CO)OC(Oc3ccc(CC4NC(=O)C(C(C)c5cccc(F)c5)NC(=O)CNC(=O)C(CO)NC(=O)C(C(O)C5CNC(=N)N5C5OC(CO)C(O)C(O)C5O)NC(=O)C(C(O)C5CNC(=N)N5)NC4=O)cc3)C(O)C2O)C1O (stereo not drawn) [Example 264b] | MIC Coagulase Negative Staphylococcus (GC 4551) (Staphylococcus sp.): 8 µg/mL (≈ 5.72 µM); MIC Coagulase Negative Staphylococcus (GC 4551) (Staphylococcus sp.; broth dilution): 8 µg/mL (≈ 5.72 µM); MIC Staphylococcus aureus (ATCC 29213) (Staphylococcus sp.): 8 µg/mL (≈ 5.72 µM); MIC Staphylococcus aureus (ATCC 29213) (Staphylococcus sp.; broth dilution): 8 µg/mL (≈ 5.72 µM); MIC Staphylococcus aureus (GC 1131) (Staphylococcus sp.): 8 µg/mL (≈ 5.72 µM); MIC Staphylococcus aureus (GC 1131) (Staphylococcus sp.; broth dilution): 8 µg/mL (≈ 5.72 µM); MIC Staphylococcus aureus (GC 4541) (Staphylococcus sp.): 8 µg/mL (≈ 5.72 µM); MIC Staphylococcus aureus (GC 4541) (Staphylococcus sp.; broth dilution): 8 µg/mL (≈ 5.72 µM); MIC Staphylococcus aureus (GC 4542) (Staphylococcus sp.): 8 µg/mL (≈ 5.72 µM); MIC Staphylococcus aureus (GC 4542) (Staphylococcus sp.; broth dilution): 8 µg/mL (≈ 5.72 µM); MIC Staphylococcus aureus (GC 4544) (Staphylococcus sp.): 8 µg/mL (≈ 5.72 µM); MIC Staphylococcus aureus (GC 4544) (Staphylococcus sp.; broth dilution): 8 µg/mL (≈ 5.72 µM); MIC Staphylococcus aureus (GC 4545) (Staphylococcus sp.): 4 µg/mL (≈ 2.86 µM); MIC Staphylococcus aureus (GC 4545) (Staphylococcus sp.; broth dilution): 4 µg/mL (≈ 2.86 µM); MIC Staphylococcus aureus-SMITH (GC 4543) (Staphylococcus sp.): 8 µg/mL (≈ 5.72 µM); MIC Staphylococcus aureus-SMITH (GC 4543) (Staphylococcus sp.; broth dilution): 8 µg/mL (≈ 5.72 µM); MIC Staphylococcus haemolyticus (GC 4546) (Staphylococcus sp.): 4 µg/mL (≈ 2.86 µM); MIC Staphylococcus haemolyticus (GC 4546) (Staphylococcus sp.; broth dilution): 4 µg/mL (≈ 2.86 µM)
